Source: ChEMBL document CHEMBL4406865, “Design, synthesis and biological evaluation of novel semicarbazone-selenochroman-4-ones hybrids as potent antifungal agents” (2019)
≈ marks a conversion by molar mass, not a printed value.

Legend:
Type in all cases: functional
Candida albicans [1] = assay: Antifungal activity against Candida albicans CPCC400616 measured at 24 hrs by CLSI protocol based microbroth dilution method; conditions: CPCC400616, 24 h
Cryptococcus neoformans = assay: Antifungal activity against Cryptococcus neoformans CGMCC2.3161 measured at 72 hrs by CLSI protocol based microbroth dilution method; conditions: CGMCC2.3161, 72 h
[Candida] zeylanoides = Antifungal activity against Candida zeylanoides CGMCC2.3739 measured at 24 hrs by CLSI protocol based microbroth dilution method; conditions: Dujonia zeylanoides, CGMCC2.3739, 24 h
Candida albicans [2] = assay: Antifungal activity against Candida albicans SC5314 incubated for 24 hrs by CLSI protocol based microbroth dilution method; conditions: SC5314, 24 h
Aspergillus fumigatus = assay: Antifungal activity against Aspergillus fumigatus CGMCC 3.7795 measured at 72 hrs by CLSI protocol based microbroth dilution method; conditions: CGMCC 3.7795, 72 h
Candida albicans [3] = assay: Antifungal activity against fluconazole-resistant Candida albicans CaR incubated for 24 hrs by CLSI protocol based microbroth dilution method
Candida albicans [4] = assay: Antifungal activity against fluconazole-resistant Candida albicans isolate 100 incubated for 24 hrs by CLSI protocol based microbroth dilution method; conditions: isolate 100, 24 h
Candida albicans [5] = assay: Antifungal activity against fluconazole-resistant Candida albicans isolate 103 incubated for 24 hrs by CLSI protocol based microbroth dilution method; conditions: isolate 103, 24 h
Candida albicans [6] = assay: Antifungal activity against fluconazole-resistant Candida albicans isolate 17 incubated for 24 hrs by CLSI protocol based microbroth dilution method; conditions: isolate 17, 24 h

SMILES	MIC90 (Candida albicans [1])	MIC90 (Cryptococcus neoformans)	MIC90 ([Candida] zeylanoides)	MIC90 (Candida albicans [2])	MIC90 (Aspergillus fumigatus)	MIC90 (Candida albicans [3])	MIC90 (Candida albicans [4])	MIC90 (Candida albicans [5])	MIC90 (Candida albicans [6])
Cc1ccc(C)c(NC(=O)N/N=C2\CC[Se]c3ccc(C)cc32)c1	64 µg/mL (≈ 166 µM)	64 µg/mL (≈ 166 µM)	> 128 µg/mL	64 µg/mL (≈ 166 µM)	> 128 µg/mL	–	–	–	–
O=C(N/N=C1\CC[Se]c2ccc(F)cc21)Nc1cccc(Br)c1	16 µg/mL (≈ 36.3 µM)	16 µg/mL (≈ 36.3 µM)	> 128 µg/mL	64 µg/mL (≈ 145 µM)	> 128 µg/mL	–	–	–	–
COc1cccc(NC(=S)N/N=C2\CC[Se]c3ccc(F)cc32)c1	8 µg/mL (≈ 19.6 µM)	1 µg/mL (≈ 2.45 µM)	2 µg/mL (≈ 4.9 µM)	16 µg/mL (≈ 39.2 µM)	> 128 µg/mL	–	–	–	–
Cc1ccc(NC(=S)N/N=C2\CC[Se]c3ccccc32)cc1	8 µg/mL (≈ 21.4 µM)	8 µg/mL (≈ 21.4 µM)	128 µg/mL (≈ 342 µM)	64 µg/mL (≈ 171 µM)	> 128 µg/mL	–	–	–	–
Cc1ccc2c(c1)C(=O)CC[Se]2	32 µg/mL (≈ 142 µM)	> 128 µg/mL	> 128 µg/mL	4 µg/mL (≈ 17.8 µM)	> 128 µg/mL	–	–	–	–
Cc1ccc2c(c1)/C(=N/NC(=O)Nc1cccc(Br)c1)CC[Se]2	> 128 µg/mL	> 128 µg/mL	> 128 µg/mL	> 128 µg/mL	> 128 µg/mL	–	–	–	–
COc1ccc(OC)c(NC(=S)N/N=C2\CC[Se]c3ccc(F)cc32)c1	8 µg/mL (≈ 18.2 µM)	4 µg/mL (≈ 9.12 µM)	4 µg/mL (≈ 9.12 µM)	2 µg/mL (≈ 4.56 µM)	64 µg/mL (≈ 146 µM)	4 µg/mL (≈ 9.12 µM)	2 µg/mL (≈ 4.56 µM)	4 µg/mL (≈ 9.12 µM)	2 µg/mL (≈ 4.56 µM)
COc1ccc(OC)c(NC(=S)N/N=C2\CC[Se]c3ccc(C)cc32)c1	64 µg/mL (≈ 147 µM)	32 µg/mL (≈ 73.7 µM)	128 µg/mL (≈ 295 µM)	32 µg/mL (≈ 73.7 µM)	> 128 µg/mL	–	–	–	–
CCOc1ccc(NC(=O)N/N=C2\CC[Se]c3ccc(F)cc32)cc1	8 µg/mL (≈ 19.7 µM)	32 µg/mL (≈ 78.8 µM)	16 µg/mL (≈ 39.4 µM)	4 µg/mL (≈ 9.84 µM)	> 128 µg/mL	–	–	–	–
COc1ccc(OC)c(NC(=S)N/N=C2\CC[Se]c3ccccc32)c1	8 µg/mL (≈ 19 µM)	2 µg/mL (≈ 4.76 µM)	32 µg/mL (≈ 76.1 µM)	4 µg/mL (≈ 9.51 µM)	> 128 µg/mL	–	–	–	–
Cc1ccc(C)c(NC(=O)N/N=C2\CC[Se]c3ccc(F)cc32)c1	8 µg/mL (≈ 20.5 µM)	> 128 µg/mL	> 128 µg/mL	4 µg/mL (≈ 10.2 µM)	> 128 µg/mL	–	–	–	–
CCc1ccccc1NC(=O)N/N=C1\CC[Se]c2ccc(F)cc21	8 µg/mL (≈ 20.5 µM)	> 128 µg/mL	> 128 µg/mL	8 µg/mL (≈ 20.5 µM)	> 128 µg/mL	–	–	–	–
NNC(=S)NN	32 µg/mL (≈ 301 µM)	64 µg/mL (≈ 603 µM)	64 µg/mL (≈ 603 µM)	64 µg/mL (≈ 603 µM)	> 128 µg/mL	–	–	–	–
OC(Cn1cncn1)(Cn1cncn1)c1ccc(F)cc1F [FLUCONAZOLE]	2 µg/mL (≈ 6.53 µM)	1 µg/mL (≈ 3.27 µM)	2 µg/mL (≈ 6.53 µM)	1 µg/mL (≈ 3.27 µM)	> 128 µg/mL	> 128 µg/mL	128 µg/mL (≈ 418 µM)	> 128 µg/mL	128 µg/mL (≈ 418 µM)
Cc1ccc2c(c1)/C(=N/NC(=S)NN)CC[Se]2	8 µg/mL (≈ 25.5 µM)	4 µg/mL (≈ 12.8 µM)	> 128 µg/mL	8 µg/mL (≈ 25.5 µM)	> 128 µg/mL	–	–	–	–
NNC(=S)N/N=C1\CC[Se]c2ccccc21	8 µg/mL (≈ 26.7 µM)	0.5 µg/mL (≈ 1.67 µM)	1 µg/mL (≈ 3.34 µM)	16 µg/mL (≈ 53.5 µM)	> 128 µg/mL	> 128 µg/mL	> 128 µg/mL	> 128 µg/mL	64 µg/mL (≈ 214 µM)
O=C1CC[Se]c2ccc(F)cc21	16 µg/mL (≈ 69.8 µM)	> 128 µg/mL	> 128 µg/mL	4 µg/mL (≈ 17.5 µM)	> 128 µg/mL	–	–	–	–
Cc1ccc(C)c(NC(=S)N/N=C2\CC[Se]c3ccccc32)c1	16 µg/mL (≈ 41.2 µM)	16 µg/mL (≈ 41.2 µM)	128 µg/mL (≈ 330 µM)	8 µg/mL (≈ 20.6 µM)	> 128 µg/mL	–	–	–	–
NNC(=S)Nc1ccccc1	64 µg/mL (≈ 383 µM)	64 µg/mL (≈ 383 µM)	> 128 µg/mL	> 128 µg/mL	> 128 µg/mL	–	–	–	–
O=C(N/N=C1\CC[Se]c2ccc(F)cc21)Nc1ccccc1Cl	8 µg/mL (≈ 20.2 µM)	16 µg/mL (≈ 40.3 µM)	8 µg/mL (≈ 20.2 µM)	2 µg/mL (≈ 5.04 µM)	> 128 µg/mL	–	–	–	–
